{"source": "paper PMC7139549", "about": "“TLD1433 Photosensitizer Inhibits Conjunctival Melanoma Cells in Zebrafish Ectopic and Orthotopic Tumour Models” (Cancers, 2020)", "key": {"[1]": {"system": "CRMM2 engrafted cells in zebrafish orthotopic model", "test": "In situ TUNEL assay, CRMM2 orthotopic zebrafish model", "format": "in vivo, Zebrafish (Danio rerio)", "conditions": "RO 2.3 mM", "description": "In situ TUNEL assay on fixed embryos was used to detect TLD1433 induced apoptosis in zebrafish CRMM1 and CRMM2 orthotopic tumour models at 4 dpi after light activation of 2.3 mM TLD1433, administrated by retro orbital injection. The DNA strand breaks in apoptotic tumour cells were stained with fluorescein and visualized as a green signal.\nFigure 10 TUNEL assay of in CRMM1 and CRMM2 orthotopic model after RO of TLD1433. Red fluorescent CRMM1 (A) and CRMM2 (B) cells were injected at 2dpf behind the ZF eye and divided into four groups for drug treatment. RO administration of vehicle control and TLD1433 was performed as described in Figure 9C,E. After dark or light exposure (21 mW/cm^2, 114 J.cm^−2, 520 nm) embryos were fixed and TUNEL staining was performed. Representative images of embryos are shown in this figure. (A,B) In TLD1433 light groups nuclear DNA fragmentation by nucleases is detected by co-localization of green (DNA fragments) and red signal of engrafted CM cells, depicted as yellow signal and marked by white arrows. In control dark, control light, TLD1433 dark, there are no positive green apoptotic tumour cells observed. […] Experiment was performed 3 times with a group size of 10 embryos.\nThe zebrafish larvae were fixed overnight with 4% PFA at 4 °C. Embryos were washed in PBST for 5 min and dehydrated by a graded methanol series until reaching 100% methanol. […]"}, "other cell lines": {"system": "other cell lines", "design": "method as in not given", "conditions": "reported for TLD1433 with other cell lines; ref not given; cited from earlier work"}, "[2]": {"system": "CRMM1 cells injected into the Duct of Cuvier of zebrafish embryos", "test": "Zebrafish ectopic CM tumour model, CRMM1", "format": "in vivo, Zebrafish (Danio rerio)", "conditions": "for PI (Fluorescence Intensity) / PI (Tumour Area) / Relative Tumour Burden as Measured by Fluorescence Intensity / Tumour Area: CRMM1, Ectopic Model; for PI (Fluorescence Intensity) / PI (Tumour Area): 0 vs 114 J.cm^−2", "description": "The zebrafish ectopic conjunctival melanoma tumour model has been described previously. In this model, around 200 fluorescent CM cells are injected into the Duct of Cuvier at 2 dpf, and then disseminate through the blood circulation and grow in the head and tail. To establish the orthotopic tumour model, around 100 red, (td)Tomato fluorescent CRMM1 or CRMM2 cells were injected RO at 2 dpf into tg(Fli:GFP/Casper), endothelial reporter transgenic zebrafish with green fluorescent vasculature and examined by fluorescent microscopy at day 1 and 4 after engraftment (Figure 6A). Tumour expansion at the injection site was measured as fluorescence intensity and tumour area.\nFor cancer cell injection, two days post-fertilization (dpf), dechorionated zebrafish embryos were anaesthetized with 0.003% tricaine (Sigma) and plated on a 10 cm Petri dish covered with 1.5% of solidified agarose. CRMM1 and CRMM2 cells were suspended in PBS containing 2% polyvinylpyrrolidone (PVP; Sigma-Aldrich) with a concentration of 50,000 cells/µL and loaded into borosilicate glass capillary needles (1 mm O.D. × 0.78 mm I.D.; Harvard Apparatus). In the ectopic model, 200 (td)Tomato fluorescent CM cells were injected into the Duct of Cuvier or at 2 dpf, which led to dissemination through the blood circulation and outgrowth in the head and tail. In orthotopic tumour model, 100 (td)Tomato fluorescent CRMM1 or CRMM2 cells were injected RO in 2 dpf embryos using a Pneumatic Picopump and a manipulator (WPI). After injection, the embryos were incubated in a 34 °C incubator. Images were acquired at 1-, 2- and 4-days post injection (dpi) with a Leica M165 FC stereo fluorescence microscope. Tumor growth was quantified by calculating the total fluorescence intensity and area with the ZF4 pixel counting program (Leiden). Each experiment was performed at least 3 times with a group size of >30 embryos.\nFluorescent CRMM1 and CRMM2 cells were injected at 2 dpf into the Duct of Cuvier (ectopic model) and behind the eye (orthotopic model) and TLD1433 was delivered by WA, IV and RO administration with or without a light treatment as described in 4.8. For the WA administration, the 4.6 nM TLD1433 solution was added to the tumour cells injected zebrafish at 2.5, 3.5, 4.5, 5.5 dpf and maintained for 12 h. At 3, 4, 5, 6 dpf, the fish water was refreshed, and after 1 h, embryos were exposed to green light for 90 min (21 mW/cm^2, 114 J/cm^2, 520 nm). For the IV and RO administration, 1 nL of 2.3 mM TLD1433 solution was injected via the dorsal vein or the RO site at 3, 4, 5, 6 dpf. After 1 h interval, the embryos were exposed to green light for 90 min (21 mW/cm^2, 114 J/cm^2, 520 nm). After treatment, the embryos images were acquired with a Leica M165 FC stereo fluorescence microscope. Tumor growth was quantified by calculating the total fluorescence intensity and area with the ZF4 pixel counting program (Leiden). Each experiment was performed at least 3 times with a group size of >30 embryos."}, "[3]": {"conditions": "Intravenous (1 nL of 2.3 mM), Light Dose 0 J.cm^−2, vs control dark group (100%)"}, "[4]": {"conditions": "Intravenous (1 nL of 2.3 mM), Light Dose 114 J.cm^−2, vs control dark group (100%)"}, "[5]": {"conditions": "Water (4.6 nM), Light dose 0 J.cm^−2, vs control dark group (100%)"}, "[6]": {"conditions": "Water (4.6 nM), Light dose 114 J.cm^−2, vs control dark group (100%)"}, "[7]": {"conditions": "CRMM1, ectopic model, IV 2.3 mM, light 114 J.cm^−2"}, "[8]": {"conditions": "CRMM1, ectopic model, RO 2.3 mM, green light 114 J.cm^−2"}}}
{"compound": "Cc1ccnc(-c2cc(C)ccn2)c1.Cc1ccnc(-c2cc(C)ccn2)c1.[Cl-].[Cl-].[Ru+2].c1csc(-c2ccc(-c3ccc(-c4nc5c6cccnc6c6ncccc6c5[nH]4)s3)s2)c1", "note": "[TLD1433]", "values": [{"measurement": "TUNEL apoptosis of engrafted cells (in words)", "setting": "[1]; dark, 4 dpi", "result": "no positive green signal detected"}, {"measurement": "TUNEL apoptosis of engrafted cells (in words)", "setting": "[1]; light 114 J.cm^−2, 4 dpi", "result": "induced CRMM1 and CRMM2 cell apoptosis"}, {"measurement": "PI", "setting": "other cell lines", "result": "> 1000"}, {"measurement": "PI (Fluorescence Intensity)", "setting": "[2]; Intravenous (1 nL of 2.3 mM)", "result": 1.6}, {"measurement": "PI (Tumour Area)", "setting": "[2]; Intravenous (1 nL of 2.3 mM)", "result": 2.2}, {"measurement": "Relative Tumour Burden as Measured by Fluorescence Intensity", "setting": "[2]; [3]", "result": 94, "unit": "%"}, {"measurement": "Tumour Area", "setting": "[2]; [3]", "result": 102, "unit": "%"}, {"measurement": "Relative Tumour Burden as Measured by Fluorescence Intensity", "setting": "[2]; [4]", "result": 59, "unit": "%"}, {"measurement": "Tumour Area", "setting": "[2]; [4]", "result": 46, "unit": "%"}, {"measurement": "PI (Tumour Area)", "setting": "[2]; Retro orbital (1 nL of 2.3 mM)", "result": 2.4}, {"measurement": "Tumour Area", "setting": "[2]; Retro orbital (1 nL of 2.3 mM), Light dose 0 J.cm^−2, vs control dark group (100%)", "result": 85, "unit": "%"}, {"measurement": "Tumour Area", "setting": "[2]; Retro orbital (1 nL of 2.3 mM), Light dose 114 J.cm^−2, vs control dark group (100%)", "result": 36, "unit": "%"}, {"measurement": "PI (Fluorescence Intensity)", "setting": "[2]; Retro-orbital (1 nL of 2.3 mM)", "result": 1.6}, {"measurement": "Relative Tumour Burden as Measured by Fluorescence Intensity", "setting": "[2]; Retro-orbital (1 nL of 2.3 mM), Light Dose 0 J.cm^−2, vs control dark group (100%)", "result": 85, "unit": "%"}, {"measurement": "Relative Tumour Burden as Measured by Fluorescence Intensity", "setting": "[2]; Retro-orbital (1 nL of 2.3 mM), Light Dose 114 J.cm^−2, vs control dark group (100%)", "result": 53, "unit": "%"}, {"measurement": "PI (Fluorescence Intensity)", "setting": "[2]; Water (4.6 nM)", "result": 1.0}, {"measurement": "PI (Tumour Area)", "setting": "[2]; Water (4.6 nM)", "result": 1.0}, {"measurement": "Relative Tumour Burden as Measured by Fluorescence Intensity", "setting": "[2]; [5]", "result": 91, "unit": "%"}, {"measurement": "Tumour Area", "setting": "[2]; [5]", "result": 103, "unit": "%"}, {"measurement": "Relative Tumour Burden as Measured by Fluorescence Intensity", "setting": "[2]; [6]", "result": 89, "unit": "%"}, {"measurement": "Tumour Area", "setting": "[2]; [6]", "result": 99, "unit": "%"}, {"measurement": "inhibition of tumour area", "setting": "[2]; [7]", "result": 54, "unit": "%"}, {"measurement": "inhibition of tumour fluorescence intensity", "setting": "[2]; [7]", "result": 41, "unit": "%"}, {"measurement": "diminished fluorescence intensity", "setting": "[2]; [8]", "result": 47, "unit": "%"}, {"measurement": "diminished tumour area", "setting": "[2]; [8]", "result": 64, "unit": "%"}, {"measurement": "effect on tumour burden (in words)", "setting": "[2]; CRMM1, ectopic model, WA at the MTD (4.6 nM), light 114 J.cm^−2", "result": "did not inhibit tumour burden"}]}
